Tests used:
[1] = test system: cardiomyocytes from double knock-in human iPS cell lines (mCherry at TNNI3 locus); experiment: Experimental Example 1: mCherry (TNNI3 reporter) immunostaining measured by high contents screening; assay type: cell-based; parameters: key to average fluorescent intensity (at 30 μM): —: The symbol in Table 2 means that the average fluorescent intensity cannot be evaluated due to cell decrease; conditions: read on 8th day, Alexa 647 anti-mCherry, control well 797; for average fluorescent intensity (at 1 μM): test compound 1 μM added on 3rd and 6th culture days; for average fluorescent intensity (at 30 μM): test compound 30 μM added on 3rd and 6th culture days
Procedure, shortened: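 Double knock-in iPS lines (EmGFP at TNNI1, mCherry at TNNI3) differentiated as embryoid bodies in stirred bioreactor at 37 °C, 5% O2: BMP4/activin A/bFGF, then VEGF, IWP-3, dorsomorphin, SB431542, then VEGF alone. On day 14, dissociated cells seeded at 1.0×10^4 cells/well on iMatrix-511 in AK02-based cardiomyocyte medium.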

[2] = test system: cardiomyocytes (embryoid bodies) from double knock-in human iPS cell lines (mCherry at TNNI3 locus); experiment: Experimental Example 2: mCherry expression in TNNI1+ cells by flow cytometry; assay type: cell-based; conditions: 3 μM, 8th-16th day, DMSO control 7.8
Experimental: For detection of cardiomyocyte maturation, double knock-in human iPS cell lines, in which reporter protein sequences, EmGFP (Sequence Number 1) and mCherry (Sequence Number 2) were inserted into gene loci for TNNI1 and TNNI3, respectively, were prepared (the human iPS cells were prepared from episomal vector (loaded gene; OCT3/4, KLF4, SOX2, L-MYC, LIN28, mouse p53DD) using PBMC (LP_167, Sample ID: 20130318) purchased from CTL (reference literature; Okita K, et al. Stem Cells. 2012 Nov. 29. doi: 10.1002/stem.1293)).
The maintenance culture of the above-mentioned reporter iPS cell lines was carried out by a conventional method (Okita K, et al. Stem Cells. 2012 Nov. 29. doi: 10.1002/stem.1293).
For differentiation induction into cardiomyocytes, the reporter iPS cell lines were treated with 0.5×TrypLE select (Life Technologies, diluted in 1/2 with 0.5 mM EDTA/PBS) for 4 to 5 minutes, and the cells were exfoliated using a cell scraper (IWAKI), and then dissociated into the single cell by pipetting. The medium was removed by centrifugation (1,000 rpm, 5 min), and the obtained cells were suspended in a medium prepared by adding 1% L-glutamine, transferrin 150 μg/mL, ascorbic acid 50 μg/mL (Sigma), monothioglycerol […], 10 μM Rock inhibitor (Y-27632), 2 ng/mL BMP4 (R&D) and 0.5% Matrigel (Growth Factor Reduced) to StemPro-34 SFM (ThermoFisher) in a 6 well-plate by 2×10^6 cells/1.5 mL/well, and then subjected to static culture at 37° C., under 5% oxygen condition to form embryoid bodies (0 day).
Next day (1st day), a medium prepared by adding 1% L-glutamine, transferrin 150 μg/mL, ascorbic acid 50 μg/mL (Sigma), monothioglycerol 4><10^−4 M, 1.8 μL (concentration 12 ng/mL) of 10 μg/mL activin A, […] (concentration 10 ng/mL) of 10 μg/mL bFGF and 2.7 μL (concentration 18 ng/mL) of 10 μg/mL BMP4 to 1.5 mL of StemPro-34 SFM (ThermoFisher) was added to each well of the 6 well plate containing the embryoid bodies to adjust the volume combined with the 0 day's medium to final 3 mL (activin A: 6 ng/ml, bFGF: 5 ng/ml, BMP4: 10 ng/ml), and the embryoid bodies were cultured at 37° C. for additional 2 days, under 5% oxygen condition.
Then (3rd day), the 6 well plate containing the embryoid bodies was inclined, and then left to stand for 1 to 2 minutes until the embryoid bodies were precipitated at the edges of the wells, and the supernatant was aspirated so as not to suck the embryoid bodies. Then, IMDM (ThermoFisher) medium was added to each well, and, as above, the plate was inclined, and then left to stand for 1 to 2 minutes, and the supernatant was aspirated so as not to suck the embryoid bodies. A medium prepared by adding 1% L-glutamine, transferrin 150 μg/mL, ascorbic acid 50 μg/mL (Sigma), monothioglycerol 4×10^−4 M, 10 ng/mL VEGF, 1 μM IWP-3, 0.6 μM dorsomorphin and 5.4 μM SB431542 to 3 mL of StemPro-34 SFM (ThermoFisher) was added to each well of the 6 well plate, and then the embryoid bodies were cultured at 37° C. for 3 days, under 5% oxygen condition.
Then (6th day), the 6 well plate containing the embryoid bodies was inclined, and then left to stand for 1 to 2 minutes until the embryoid bodies were precipitated at the edges of the wells, and the supernatant was aspirated so as not to suck the embryoid bodies. […]

Row | SMILES | average fluorescent intensity (at 1 μM) [1] | average fluorescent intensity (at 30 μM) [1] | mCherry+ (%) [2] [%]
1 | O=C1c2ccc(N3CCCCC3)cc2CN1c1ccc2[nH]c(-c3ccc(O)cc3)nc2c1 [Example 4, 2-(2-(4-hydroxyphenyl)-1H-benzimidazol-5-yl)-5-(piperidin-1-yl)isoindolin-1-one] | 1621 | 894 | 58.1
2 | O=C(COc1ccc(-c2nc3cc(N4Cc5cc(N6CCCCC6)ccc5C4=O)ccc3[nH]2)cc1)Nc1ccc2c(c1)CCS2(=O)=O [Example 17, N-(1,1-dioxido-2,3-dihydro-1-benzothiophen-5-yl)-2-(4-(5-(1-oxo-5-(piperidin-1-yl)-1,3-dihydro-2H-isoindol-2-yl)-1H-benzimidazol-2-yl)phenoxy)acetamide] | 1544 | 1079 | 42.1
3 | O=C1c2ccc(N3CCCCC3)cc2CN1c1ccc2[nH]c(-c3ccncc3)nc2c1 [Example 45, 5-(piperidin-1-yl)-2-(2-(pyridin-4-yl)-1H-benzimidazol-5-yl)isoindolin-1-one] | 1130 | 814 | 66.6
4 | O=C1c2ccc(N3CCCCC3)cc2CN1c1ccc2[nH]c(-c3cccnc3)nc2c1 [Example 46, 5-(piperidin-1-yl)-2-(2-(pyridin-3-yl)-1H-benzimidazol-5-yl)isoindolin-1-one] | 1142 | 1616 | 47.2
5 | CCOc1ccc(Cc2nc3cc(N4Cc5cc(N6CCOCC6)ccc5C4=O)ccc3[nH]2)cc1 [Example 57, 2-(2-(4-ethoxybenzyl)-1H-benzimidazol-5-yl)-5-(morpholin-4-yl)isoindolin-1-one] | 778 | 1666 | 
6 | CCCOc1ccc(-c2nc3cc(N4Cc5cc(N6CCOCC6)ccc5C4=O)ccc3[nH]2)cc1 [Example 58, 5-(morpholin-4-yl)-2-(2-(4-propoxyphenyl)-1H-benzimidazol-5-yl)isoindolin-1-one] | 994 | 819 | 
7 | CCOc1ccc(-c2nc3cc(N4Cc5cc(N6CCOCC6)ccc5C4=O)ccc3n2C)cc1 [Example 59, 2-(2-(4-ethoxyphenyl)-1-methyl-1H-benzimidazol-5-yl)-5-(morpholin-4-yl)isoindolin-1-one] | 803 | 1301 | 
8 | CCOc1ccc(-c2nc3ccc(N4Cc5cc(N6CCOCC6)ccc5C4=O)cc3n2C)cc1 [Example 60, 2-(2-(4-ethoxyphenyl)-1-methyl-1H-benzimidazol-6-yl)-5-(morpholin-4-yl)isoindolin-1-one] | 770 | 868 | 
9 | CCOc1ccc(-c2nc3cc(N4Cc5cc(N(C)C)ccc5C4=O)ccc3[nH]2)cc1 [Example 61, 5-(dimethylamino)-2-(2-(4-ethoxyphenyl)-1H-benzimidazol-5-yl)isoindolin-1-one] | 1150 |  | 
10 | CCOc1ccc(-c2nc3cc(N4Cc5cc(N6CCN(C)CC6)ccc5C4=O)ccc3[nH]2)cc1 [Example 62, 2-(2-(4-ethoxyphenyl)-1H-benzimidazol-5-yl)-5-(4-methylpiperazin-1-yl)isoindolin-1-one] | 1004 | — | 
11 | CCOc1ccc(-c2nc3cc(N4Cc5cc(-n6cccc6)ccc5C4=O)ccc3[nH]2)cc1 [Example 63, 2-(2-(4-ethoxyphenyl)-1H-benzimidazol-5-yl)-5-(1H-pyrrol-1-yl)isoindolin-1-one] | 1194 | — | 
12 | CCOc1ccc(-c2nc3cc(N4Cc5cc(N(CC)CC)ccc5C4=O)ccc3[nH]2)cc1 [Example 64, 5-(diethylamino)-2-(2-(4-ethoxyphenyl)-1H-benzimidazol-5-yl)isoindolin-1-one] | 1328 | — | 
13 | CCOc1ccc(-c2nc3cc(N4Cc5cc(N6CCCCC6)ccc5C4=O)ccc3[nH]2)cc1 [Example 65, 2-(2-(4-ethoxyphenyl)-1H-benzimidazol-5-yl)-5-(piperidin-1-yl)isoindolin-1-one] | 1245 | 836 | 
14 | COCc1ccc(-c2nc3cc(N4Cc5cc(N6CCOCC6)ccc5C4=O)ccc3[nH]2)cc1 [Example 66, 2-(2-(4-(methoxymethyl)phenyl)-1H-benzimidazol-5-yl)-5-(morpholin-4-yl)isoindolin-1-one] | 1338 | 1358 | 
15 | O=C1c2ccc(N3CCOCC3)cc2CN1c1ccc2[nH]c(-c3ccc(F)cc3)nc2c1 [Example 67, 2-(2-(4-fluorophenyl)-1H-benzimidazol-5-yl)-5-(morpholin-4-yl)isoindolin-1-one] | 1367 | 1188 | 
16 | COc1ccc(-c2nc3cc(N4Cc5cc(N6CCCCC6)ccc5C4=O)ccc3[nH]2)cc1 [Example 68, 2-(2-(4-methoxyphenyl)-1H-benzimidazol-5-yl)-5-(piperidin-1-yl)isoindolin-1-one] | 1301 |  | 
17 | COc1ccc(-c2nc3cc(N4Cc5cc(N6CCOCC6)ccc5C4=O)ccc3[nH]2)cc1 [Example 69, 2-(2-(4-methoxyphenyl)-1H-benzimidazol-5-yl)-5-(morpholin-4-yl)isoindolin-1-one] | 1222 | 1942 | 
18 | COc1ccc(-c2nc3cc(N4Cc5cc(Br)ccc5C4=O)ccc3[nH]2)cc1 [Example 70, 5-bromo-2-(2-(4-methoxyphenyl)-1H-benzimidazol-5-yl)isoindolin-1-one] | 998 | 4335 | 
19 | CCN(CC)c1ccc2c(c1)CN(c1ccc3[nH]c(-c4ccc(OC)cc4)nc3c1)C2=O [Example 71, 5-(diethylamino)-2-(2-(4-methoxyphenyl)-1H-benzimidazol-5-yl)isoindolin-1-one] | 923 | — | 
20 | CCOc1ccc(-c2nc3cc(N4Cc5cc(N6CCOCC6)ccc5C4=O)ccc3[nH]2)cc1 [Example 72, 2-(2-(4-ethoxyphenyl)-1H-benzimidazol-5-yl)-5-(morpholin-4-yl)isoindolin-1-one] | 1370 | 948 | 
21 | O=C1c2ccc(N3CCOCC3)cc2CN1c1ccc2[nH]c(-c3ccccc3)nc2c1 [Example 73, 5-(morpholin-4-yl)-2-(2-phenyl-1H-benzimidazol-5-yl)isoindolin-1-one] | 1231 | 922 | 

— patent US11401264B2, “Heterocyclic compound” (Orizuru Therapeutics, Inc., priority 2018, dated 2022)
